Consider 96 compounds from the RepoRT retention time repository (doi:10.1016/j.jhazmat.2019.121712).

The data set in a line: Thermo Scientific Acclaim RSLC 120 C18, 100 × 2.1 mm, 2.2 µm, 30 °C; A: 90% water + 10% methanol + 0.01% formic acid + 5 mM ammonium formate; B: methanol + 0.01% formic acid + 5 mM ammonium formate; gradient (min/%B) 0.1/1 3/39 14/99.9 16/99.9. As to conditions: stereoisomer not certain.
Regarding `CCOC(=O)C1=CC(OC(CC)CC)C(NC(C)=O)C(N)C1` (stereo unspecified), the LC retention time came to 6.76 min.

For the compound `CNC(C)C1CCC(N)C(OC2C(N)CC(N)C(OC3OCC(C)(O)C(NC)C3O)C2O)O1` (stereo unspecified), the LC retention time turned out to be 11.6 min.

Turning to `CCOP(=S)(OCC)SCSCC`, the LC retention time was 11.4 min.

In the case of `CCCCOC(=O)c1ccccc1C(=O)OCc1ccccc1`, the LC retention time was found to be 12.4 min.

As to `COc1ccc2[nH]cc(CC(C)N)c2c1` (stereo unspecified), the LC retention time amounted to 4.36 min.

Take `CC[N+]1(C)C2CC(OC(=O)C(CO)c3ccccc3)CC1C1OC12` (stereo unspecified): the LC retention time came to 3.87 min.

Regarding `Nc1nc(=S)c2[nH]cnc2[nH]1`, the LC retention time was 2.53 min.

Take `CNC(=O)ON=C(C)C(C)S(C)(=O)=O` (stereo unspecified): the LC retention time was 3.66 min.

Regarding `CCCCNC(=O)NS(=O)(=O)c1ccc(N)cc1`, the LC retention time is 5.36 min.

On to `CN1C(=O)C(O)CC1c1cccnc1` (stereo unspecified), for which the LC retention time worked out at 3.13 min.

Turning to `CCC(=O)C(CCN(C)C)(c1ccccc1)c1ccccc1`, the LC retention time stood at 7.68 min.

For the compound `CC1CCC2N(C1)CC1C3CC4C(CC(O)C5CC(O)CCC54C)C3CCC1C2(C)O` (stereo unspecified), the LC retention time is 6.44 min.

As for `CC=C1CC(C)C(O)(CO)C(=O)OCC2=CC[N+]3([O-])CCC(OC1=O)C23` (stereo unspecified), the LC retention time was found to be 4.33 min.

As for `CC(C)OC(=O)Nc1ccccc1`, the LC retention time was 8.11 min.

For `O=C1N(CCN2CCCCC2)C(=O)C(c2ccccc2)(N2CCCCC2)C(=O)N1CCN1CCCCC1`, the LC retention time turned out to be 7.64 min.

On to `Cc1cc(C)c(C2=C(OC(=O)CC(C)(C)C)C3(CCCC3)OC2=O)c(C)c1`, for which the LC retention time was 12.8 min.

Take `CN(C)CCC=C1c2ccccc2C(C)(C)c2ccccc21`: the LC retention time came to 8.79 min.

Take `Cc1ccc2c(-c3ccccc3)nc(=O)n(C(C)C)c2c1`: the LC retention time worked out at 9.61 min.

In the case of `CCN(CCCCOC(=O)c1ccc(OC)c(OC)c1)C(C)Cc1ccc(OC)cc1` (stereo unspecified), the LC retention time was determined as 6.79 min.

For `CNC(=O)Oc1cc(C)cc(C)c1`, the LC retention time amounted to 7.78 min.

Consider `CCOP(=O)(NC(C)C)Oc1ccc(S(C)(=O)=O)c(C)c1` (stereo unspecified), for which the LC retention time came out at 7.21 min.

On to `COC(=O)Nc1nc2ccccc2[nH]1`, for which the LC retention time was determined as 5.46 min.

For `CC=CCC1=C(C)C(OC(=O)C2C(C=C(C)C)C2(C)C)CC1=O` (stereo unspecified), the LC retention time was determined as 12.9 min.

As to `S=c1nc[nH]c2nc[nH]c12`, the LC retention time is 2.61 min.

For `CCS(=O)(=O)c1cccnc1S(=O)(=O)NC(=O)Nc1nc(OC)cc(OC)n1`, the LC retention time stood at 7.09 min.

Turning to `CC#Cc1cc(C)nc(Nc2ccccc2)n1`, the LC retention time was found to be 10.2 min.

`CC(O)CN1CCN(CC(=O)O)CCN(CC(=O)O)CCN(CC(=O)O)CC1` (stereo unspecified): the LC retention time is 1.31 min.

`Nc1ccc(N=Nc2ccccc2)c(N)n1`: the LC retention time stood at 8.49 min.

`COc1ccc2c3c1OC1C(=O)CCC4C(C2)N(C)CCC314` (stereo unspecified): the LC retention time came to 3.69 min.

Consider `c1ccc(CC2=NCCN2)cc1`, for which the LC retention time is 3.28 min.

Take `CCC1OC(=O)C(C)C(OC2CC(C)(OC)C(O)C(C)O2)C(C)C(OC2OC(C)CC(N(C)C)C2O)C(C)(OC)CC(C)C(=O)C(C)C(O)C1(C)O` (stereo unspecified): the LC retention time came out at 9.18 min.

On to `CCCN(CCC)C(=O)SCc1ccccc1`, for which the LC retention time came out at 11.9 min.

Turning to `CC[N+]1([O-])CCCC1CNC(=O)c1cc(S(=O)(=O)CC)c(N)cc1OC` (stereo unspecified), the LC retention time stood at 4.33 min.

As to `CC(=O)Nc1ccc(OCC(O)CNC(C)C)cc1` (stereo unspecified), the LC retention time was 3.34 min.

Consider `CCC(C)Nc1c([N+](=O)[O-])cc(C(C)(C)C)cc1[N+](=O)[O-]` (stereo unspecified), for which the LC retention time is 13 min.

`CCc1cc2c(cc1CC)CC(NCC(O)c1ccc(O)c3[nH]c(=O)ccc13)C2` (stereo unspecified): the LC retention time was 7.9 min.

Regarding `COc1nc(NC(C)C)nc(NC(C)C)n1`, the LC retention time is 8.86 min.

Regarding `Cc1c(N(C)C)c(=O)n(-c2ccccc2)n1C`, the LC retention time worked out at 5.21 min.

Turning to `COc1ccc(CC(C)N)cc1` (stereo unspecified), the LC retention time was determined as 4.34 min.

As for `CCSc1ccc2c(c1)N(CCCN1CCN(C)CC1)c1ccccc1S2`, the LC retention time stood at 10.4 min.

Regarding `COC(=O)C1=C(C)NC(C)=C(C(=O)OC(C)C)C1c1cccc2nonc12` (stereo unspecified), the LC retention time came to 9.61 min.

For the compound `CNC(=O)ON=CC(C)(C)S(C)(=O)=O`, the LC retention time turned out to be 3.75 min.

`NC(=O)N1c2ccccc2C=Cc2ccccc21`: the LC retention time came out at 7.36 min.

Consider `CC(C)(ON=C(C(=O)NC1C(=O)N2C(C(=O)[O-])=C(C[n+]3ccccc3)CSC12)c1csc(N)n1)C(=O)O` (stereo unspecified), for which the LC retention time worked out at 3.38 min.

`CC1(c2ccc(Oc3ccccc3)cc2)OC(=O)N(Nc2ccccc2)C1=O` (stereo unspecified): the LC retention time stood at 11 min.

Take `NCC(O)c1cccc(O)c1` (stereo unspecified): the LC retention time was 1.81 min.

`COc1cc(C(=O)NCc2ccc(OCCN(C)C)cc2)cc(OC)c1OC`: the LC retention time was determined as 4.86 min.

As to `CNCC(O)c1ccc(O)c(O)c1` (stereo unspecified), the LC retention time came out at 1.38 min.

Turning to `COc1ccc(CC(C)N)c(OC)c1OC` (stereo unspecified), the LC retention time turned out to be 4.16 min.

As to `CC12C=CC(=O)C=C1CCC1C2CCC2(C)C(O)CCC12` (stereo unspecified), the LC retention time stood at 9.03 min.

For the compound `CCC1OC(=O)C(C)C(=O)C(C)C(OC2OC(C)CC(N(C)C)C2O)C(C)(OC)CC(C)C(=O)C(C)C2N(CCCCn3cnc(-c4cccnc4)c3)C(=O)OC12C` (stereo unspecified), the LC retention time is 7.25 min.

In the case of `CCC1OC(=O)CC(O)C(C)C(OC2OC(C)C(OC3CC(C)(O)C(O)C(C)O3)C(N(C)C)C2O)C(CC=O)CC(C)C(=O)C=CC(C)=CC1COC1OC(C)C(O)C(OC)C1OC` (stereo unspecified), the LC retention time worked out at 7.88 min.

For the compound `CN(C)CCC=C1c2ccccc2COc2ccccc21`, the LC retention time came to 7.01 min.

Consider `CNC(=O)C(=NOC)c1ccccc1COc1cc(C)ccc1C`, for which the LC retention time amounted to 10.7 min.

Regarding `CN1CCC(=C2c3ccccc3CCc3cccnc32)CC1`, the LC retention time was determined as 5.99 min.

As for `CC(C)=CC1C(C(=O)OCN2C(=O)C3=C(CCCC3)C2=O)C1(C)C` (stereo unspecified), the LC retention time is 12.2 min.

As to `CCCCOc1ccc(CC(=O)NO)cc1`, the LC retention time turned out to be 7.83 min.

For the compound `COc1ccc2cc(C(C)C(=O)O)ccc2c1` (stereo unspecified), the LC retention time was found to be 8.99 min.

For the compound `CCN(CC)CCCOC(=O)C1(c2ccccc2)CC2CCC1C2` (stereo unspecified), the LC retention time is 8.54 min.

In the case of `C1=CCC(c2cccnc2)NC1` (stereo unspecified), the LC retention time turned out to be 2.68 min.

Take `CCOP(=S)(OCC)Oc1ccc(S(C)(=O)=O)cc1`: the LC retention time amounted to 8.48 min.

In the case of `CC(CCc1ccc(O)cc1)NCC(O)c1ccc(O)cc1` (stereo unspecified), the LC retention time is 4.39 min.

For the compound `CC(C)N1C(=O)c2ccccc2NS1(=O)=O`, the LC retention time stood at 5.22 min.

Consider `CCS(=O)(=O)Cc1ccccc1OC(=O)NC`, for which the LC retention time amounted to 4.63 min.

Consider `CCOP(=S)(OCC)SCCS(=O)(=O)CC`, for which the LC retention time is 8.02 min.

For `CN1C2CCCC1CC(NC(=O)c1nn(C)c3ccccc13)C2` (stereo unspecified), the LC retention time turned out to be 4.99 min.

Turning to `Cc1noc(NS(=O)(=O)c2ccc(N)cc2)c1C`, the LC retention time is 4.71 min.

In the case of `COC(=O)C(c1ccccc1)C1CCCCN1` (stereo unspecified), the LC retention time is 4.96 min.

Take `CC(C)(C)NCC(O)COc1cccc2c1CC(O)C(O)C2` (stereo unspecified): the LC retention time is 4.29 min.

Turning to `NCC(O)COc1ccccc1C(=O)CCc1ccccc1.O=C(O)C(=O)O` (stereo unspecified), the LC retention time is 7.09 min.

In the case of `CCCCCCCCCCCCOCCOCCOCCOCCO`, the LC retention time amounted to 13.5 min.

On to `CCCN1CC(NS(=O)(=O)N(CC)CC)CC2Cc3c(O)cccc3CC21` (stereo unspecified), for which the LC retention time was 5.24 min.

In the case of `CCCCCn1cc(C(=O)N2CCN(C)CC2)c2ccccc21`, the LC retention time is 7.75 min.

For the compound `CCCCOC(=O)c1ccccc1C(=O)OCCCC`, the LC retention time turned out to be 12 min.

As to `COc1ccc2[nH]c(C)c(CCN(C)C)c2c1`, the LC retention time turned out to be 4.19 min.

For the compound `CCC(C)(C)C(=O)OC1CC(C)C=C2C=CC(C)C(CCC3CC(O)CC(=O)O3)C21` (stereo unspecified), the LC retention time came out at 12.6 min.

Take `CC(C)(C)NCC(O)c1ccc(O)c(NC(N)=O)c1` (stereo unspecified): the LC retention time came to 2.89 min.

Consider `Cc1cc(C)cc(OCC2CNC(=O)O2)c1` (stereo unspecified), for which the LC retention time was 7.86 min.

Take `COP(=S)(OC)Oc1ccc(S(N)(=O)=O)cc1`: the LC retention time turned out to be 6.19 min.

With `Cc1ccc(C(=CCN2CCCC2)c2ccccn2)cc1`, the LC retention time was determined as 6.28 min.

Take `CCOC(=O)C(CCc1ccccc1)NC(C)C(=O)N1CCCC1C(=O)O` (stereo unspecified): the LC retention time was determined as 6.83 min.

With `Cc1ccc(N=CN(C)C=Nc2ccc(C)cc2C)c(C)c1`, the LC retention time is 13.3 min.

Consider `CCOC(=O)C1C(OC(=O)c2ccccc2)CC2CCC1N2C` (stereo unspecified), for which the LC retention time turned out to be 5.46 min.

Consider `CC(C(=O)c1ccc2c(c1)OCO2)N1CCCC1` (stereo unspecified), for which the LC retention time was 4.13 min.

As for `CN(C)CC1CCCCC1(O)c1cccc(O)c1` (stereo unspecified), the LC retention time is 4.06 min.

Take `CCC1OC(=O)C(C)C(OC2CC(C)(OC)C(O)C(C)O2)C(C)C(OC2OC(C)CC(N(C)C)C2O)C(C)(O)CC(C)C(=O)C(C)C(O)C1(C)O` (stereo unspecified): the LC retention time came out at 8 min.

For `Cc1cc(NS(=O)(=O)c2ccc(N)cc2)no1`, the LC retention time is 4.6 min.

Turning to `N=C1NC(=O)C(c2ccccc2)O1` (stereo unspecified), the LC retention time turned out to be 4.34 min.

As to `Nc1ccc(S(=O)(=O)c2ccc(N)cc2)cc1`, the LC retention time stood at 4.13 min.

For `CCc1c(C)[nH]c2c1C(=O)C(CN1CCOCC1)CC2` (stereo unspecified), the LC retention time came out at 4.89 min.

For the compound `OCCOCCN1CCN(C2=Nc3ccccc3Sc3ccccc32)CC1`, the LC retention time amounted to 7.26 min.

Regarding `CCCCSP(=O)(SCCCC)SCCCC`, the LC retention time was 13.4 min.

With `CC1COCc2cc3c(cc21)C(C)(C)C(C)C3(C)C` (stereo unspecified), the LC retention time turned out to be 13.9 min.

As for `CN(CC=Cc1ccccc1)Cc1cccc2ccccc12`, the LC retention time is 8.52 min.

Regarding `CN(C)CCC=C1c2ccccc2CSc2ccccc21`, the LC retention time turned out to be 7.61 min.

In the case of `N#CSCSc1nc2ccccc2s1`, the LC retention time came out at 9.25 min.
